Numbers after ± are expanded uncertainties.
Assay: mn = molality of the nth substance listed, in mol/kg
Details: 101.33 kPa, Liquid; for viscosity: Capillary tube (Ostwald / Ubbelohde) method; for mass density: Vibrating tube method

CO/N=C(\C(=O)N[C@@H]1C(=O)N2C(C(=O)O)=C(C[N+]3(C)CCCC3)CS[C@H]12)c1csc(N)n1.Cl.[Cl-] [cefepime dihydrochloride] + O
Details	mass density [kg/m3]	viscosity [mPa·s]
278.15 K, m1 = 0.01005	1002 ± 0.21	1.544 ± 0.032
278.15 K, m1 = 0.02017	1004.01 ± 0.21	1.57 ± 0.033
278.15 K, m1 = 0.0304	1006.02 ± 0.21	1.597 ± 0.033
278.15 K, m1 = 0.05103	1009.98 ± 0.21	1.649 ± 0.034
278.15 K, m1 = 0.07222	1013.97 ± 0.21	1.705 ± 0.036
278.15 K, m1 = 0.09333	1017.86 ± 0.21	1.766 ± 0.037
278.15 K, m1 = 0.1154	1021.84 ± 0.21	1.824 ± 0.038
278.15 K, m1 = 0.1343	1025.19 ± 0.21	1.88 ± 0.039
278.15 K, m1 = 0.1521	1028.29 ± 0.21	1.937 ± 0.041
283.15 K, m1 = 0.01005	1001.73 ± 0.21	1.324 ± 0.028
283.15 K, m1 = 0.02017	1003.73 ± 0.21	1.348 ± 0.028
283.15 K, m1 = 0.0304	1005.73 ± 0.21	1.371 ± 0.029
283.15 K, m1 = 0.05103	1009.67 ± 0.21	1.416 ± 0.03
283.15 K, m1 = 0.07222	1013.62 ± 0.21	1.463 ± 0.031
283.15 K, m1 = 0.09333	1017.47 ± 0.21	1.517 ± 0.032
283.15 K, m1 = 0.1154	1021.4 ± 0.21	1.566 ± 0.033
283.15 K, m1 = 0.1343	1024.71 ± 0.21	1.613 ± 0.034
283.15 K, m1 = 0.1521	1027.79 ± 0.21	1.663 ± 0.035
288.15 K, m1 = 0.01005	1001.11 ± 0.21	1.148 ± 0.024
288.15 K, m1 = 0.02017	1003.1 ± 0.21	1.17 ± 0.025
288.15 K, m1 = 0.0304	1005.08 ± 0.21	1.19 ± 0.025
288.15 K, m1 = 0.05103	1008.98 ± 0.21	1.228 ± 0.026
288.15 K, m1 = 0.07222	1012.89 ± 0.21	1.269 ± 0.027
288.15 K, m1 = 0.09333	1016.7 ± 0.21	1.316 ± 0.028
288.15 K, m1 = 0.1154	1020.61 ± 0.21	1.359 ± 0.028
288.15 K, m1 = 0.1343	1023.89 ± 0.21	1.4 ± 0.029
288.15 K, m1 = 0.1521	1026.93 ± 0.21	1.443 ± 0.03
293.15 K, m1 = 0.01005	1000.2 ± 0.21	1.013 ± 0.021
293.15 K, m1 = 0.02017	1002.18 ± 0.21	1.031 ± 0.022
293.15 K, m1 = 0.0304	1004.15 ± 0.21	1.049 ± 0.022
293.15 K, m1 = 0.05103	1008.03 ± 0.21	1.082 ± 0.023
293.15 K, m1 = 0.07222	1011.91 ± 0.21	1.12 ± 0.023
293.15 K, m1 = 0.09333	1015.7 ± 0.21	1.161 ± 0.024
293.15 K, m1 = 0.1154	1019.57 ± 0.21	1.199 ± 0.025
293.15 K, m1 = 0.1343	1022.82 ± 0.21	1.235 ± 0.026
293.15 K, m1 = 0.1521	1025.83 ± 0.21	1.273 ± 0.027
298.15 K, m1 = 0.01005	999.04 ± 0.21	0.899 ± 0.019
298.15 K, m1 = 0.02017	1001.01 ± 0.21	0.9159 ± 0.019
298.15 K, m1 = 0.0304	1002.97 ± 0.21	0.9314 ± 0.019
298.15 K, m1 = 0.05103	1006.84 ± 0.21	0.9593 ± 0.02
298.15 K, m1 = 0.07222	1010.7 ± 0.21	0.9939 ± 0.021
298.15 K, m1 = 0.09333	1014.46 ± 0.21	1.029 ± 0.022
298.15 K, m1 = 0.1154	1018.29 ± 0.21	1.065 ± 0.022
298.15 K, m1 = 0.1343	1021.51 ± 0.21	1.096 ± 0.023
298.15 K, m1 = 0.1521	1024.5 ± 0.21	1.13 ± 0.024
303.15 K, m1 = 0.01005	997.63 ± 0.21	0.8046 ± 0.017
303.15 K, m1 = 0.02017	999.59 ± 0.21	0.8192 ± 0.017
303.15 K, m1 = 0.0304	1001.53 ± 0.21	0.8325 ± 0.017
303.15 K, m1 = 0.05103	1005.38 ± 0.21	0.8581 ± 0.018
303.15 K, m1 = 0.07222	1009.21 ± 0.21	0.8888 ± 0.019
303.15 K, m1 = 0.09333	1012.95 ± 0.21	0.9175 ± 0.019
303.15 K, m1 = 0.1154	1016.75 ± 0.21	0.9513 ± 0.02
303.15 K, m1 = 0.1343	1019.94 ± 0.21	0.9813 ± 0.021
303.15 K, m1 = 0.1521	1022.9 ± 0.21	1.01 ± 0.021
308.15 K, m1 = 0.01005	996.01 ± 0.21	0.7235 ± 0.015
308.15 K, m1 = 0.02017	997.96 ± 0.21	0.7352 ± 0.015
308.15 K, m1 = 0.0304	999.9 ± 0.21	0.7465 ± 0.016
308.15 K, m1 = 0.05103	1003.71 ± 0.21	0.7718 ± 0.016
308.15 K, m1 = 0.07222	1007.53 ± 0.21	0.7974 ± 0.017
308.15 K, m1 = 0.09333	1011.24 ± 0.21	0.8261 ± 0.017
308.15 K, m1 = 0.1154	1015.02 ± 0.21	0.8553 ± 0.018
308.15 K, m1 = 0.1343	1018.18 ± 0.21	0.881 ± 0.018
308.15 K, m1 = 0.1521	1021.12 ± 0.21	0.904 ± 0.019
313.15 K, m1 = 0.01005	994.18 ± 0.21	0.6561 ± 0.014
313.15 K, m1 = 0.02017	996.12 ± 0.21	0.6652 ± 0.014
313.15 K, m1 = 0.0304	998.04 ± 0.21	0.6753 ± 0.014
313.15 K, m1 = 0.05103	1001.85 ± 0.21	0.6976 ± 0.015
313.15 K, m1 = 0.07222	1005.64 ± 0.21	0.7193 ± 0.015
313.15 K, m1 = 0.09333	1009.33 ± 0.21	0.7448 ± 0.016
313.15 K, m1 = 0.1154	1013.07 ± 0.21	0.7705 ± 0.016
313.15 K, m1 = 0.1343	1016.22 ± 0.21	0.7947 ± 0.017
313.15 K, m1 = 0.1521	1019.14 ± 0.21	0.8162 ± 0.017
